Key:
GII.4 Saga P dimer = GII.4 Saga P dimer (Norovirus GII.4 (human norovirus), UniProt B5BTR7); assay: Native MS, specific glycan binding to P dimer after reference protein correction; set-up: species or system human norovirus (hNoV)
Protocol: (§1) Prior to MS analysis, purified P dimers were buffer exchanged to 150 mM ammonium acetate (Sigma-Aldrich, reagent grade ≥98%) at pH 7 via centrifugal filter units at 12,000× g at 4 °C (Vivaspin 500, MWCO 10000, Sartorius). Glycans for native MS analysis were mixed with 1 µM (per monomer) purified GII.4 Saga P dimer and 3 µM of the reference proteins at indicated concentrations. Native mass spectra were measured at room temperature in positive ion mode on a high mass modified LCT Premier mass spectrometer (Waters/Micromass, UK and MS Vision, the Netherlands) with a nano-ESI source. In house-made gold-coated electrospray capillaries were used for direct-sample infusion without any accessory chromatographic separation. The voltages and pressures were optimized for non-covalent protein complexes. The gas pressure used in the source hexapole was set between 6.5 and 6.8 × 10^−2 mbar argon optimized for minimal complex dissociation and the backing pressure of the source roughing pump was set between 7.0 and 8.5 mbar. Spectra were recorded with applied voltages for the capillary and cone of 1.20 kV and 240 V, respectively. Note that charge state distributions for P dimers were sometimes slightly shifted as was the degree of glycan clustering per charge state. These changes were highly variable and not quantifiable.
(§2) For calibration of the raw data, a 25 mg/mL cesium iodide spectrum from the same day was used. MassLynx V4.1 (Waters, Manchester, UK) was used to assign peak series to protein species and to determine the mass after minimal smoothing. Furthermore, OriginPro 2016 SR2 (OriginLab, Northampton, MA, USA) was used for spectral deconvolution and curve fitting. Correction for nonspecific protein-ligand clustering was performed as described. Corrected peak areas were averaged and normalized to the free-protein signal. Data were based on at least three independent measurements. Python code Panda and Numpy package were used to calculate the specific binding of P dimers according to the glycan clustering ratio obtained from the selected reference protein candidates. Seaborn and matplotlib.pyplot package were imported into a python script to plot the results. The module of sklearn.linear model was applied for linear regression. The matplotlib and heatmap package were used to plot the heatmap.
Data from native ESI MS measurements were translated into dissociation constants (KD values). The detailed calculations were based on the equations listed below. A protein (P) and a glycan ligand (L) form a complex through non-covalent interactions leading to a reversible association described by (Equation (1)):(1) P+L⇌PL when equilibrium is reached, the KD can be calculated directly from the concentrations via the law of mass action (Equation (2)):(2) KD=[Pfree][Lfree]/[PL]
(§3) Theoretically, the KD is calculated by measuring the concentration of the three components (Pfree, Lfree, PL) in solution. Usually, these values are only indirectly accessible because they require ligand titration up to binding saturation. However, native MS allows for the directly measurement of Pfree and PL, from which Lfree can be calculated using the input concentrations. In the present work, the non-covalent interaction was measured in the gas phase assuming identical ESI and detection efficiency for free and glycan-associated proteins, both for the analyte and the reference protein. […] For P dimers, the equations reflect glycan binding to the individual monomers assuming that binding sites on each monomer are equal and independent.
Using R described in Equation (3), the KD calculation can be re-written into Equation (4) with the known initial concentration of glycan ligand [L0] and protein [P0], adapted from Sun et al.:(3) R=PLequil∕Pequil=∑nA(PL^n+)∕n∕∑nA(P^n+)∕n (4) KD =L0−RP0/1+R/R […]

[1] = target: T1, ubiquitin from bovine erythrocytes (Ubq) (Bos taurus, UniProt P0CG53); assay: Native MS glycan clustering to reference protein Ubq; assay type: binding; details: on Ubq
T1 construct: ubiquitin from bovine erythrocytes (Ubq, CAS number 75986-22-4); purchased Sigma-Aldrich (Merck, Germany); host or cells: bovine erythrocytes
Protocol: as §1, §2, §3
(§4) Using R described in Equation (3), the KD calculation can be re-written into Equation (4) with the known initial concentration of glycan ligand [L0] and protein [P0], adapted from Sun et al.:(3) R=PLequil∕Pequil=∑nA(PL^n+)∕n∕∑nA(P^n+)∕n (4) KD =L0−RP0/1+R/R
(§5) For the carbohydrate-binding experiments, it was essential to keep the initial protein concentrations and pH value constant during the analysis of the protein-carbohydrate solutions. While acidification occurs in any ESI droplet, the remaining solution in the capillary changes pH over time. Therefore, accumulated spectra were obtained within 10 min after the voltages were applied to minimize the influence of pH changes during the measurements. […]

[2] = target: T2, myoglobin from equine heart (Myo) (Equus caballus, UniProt P68082); assay: Native MS glycan clustering to reference protein Myo; assay type: binding; details: on Myo
T2 construct: myoglobin from equine heart (Myo, CAS number 100684-32-0); purchased Sigma-Aldrich (Merck, Germany); host or cells: equine heart
Protocol: as §1, §2, §3, §4, §5

[3] = target: T3, cytochrome c from equine heart (cyt c) (Equus caballus, UniProt P00004); assay: Native MS glycan clustering to reference protein cyt c; assay type: binding; details: on Cyt c
T3 construct: cytochrome c from equine heart (cyt c, CAS number 9007-43-6); purchased Sigma-Aldrich (Merck, Germany); host or cells: equine heart
Protocol: as §1, §2, §3, §4, §5

T2 sequence (P68082 whole entry): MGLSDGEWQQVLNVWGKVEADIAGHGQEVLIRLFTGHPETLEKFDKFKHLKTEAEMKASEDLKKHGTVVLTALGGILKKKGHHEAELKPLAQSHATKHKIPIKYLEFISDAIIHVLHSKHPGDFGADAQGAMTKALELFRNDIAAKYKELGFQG
T3 sequence (P00004 whole entry): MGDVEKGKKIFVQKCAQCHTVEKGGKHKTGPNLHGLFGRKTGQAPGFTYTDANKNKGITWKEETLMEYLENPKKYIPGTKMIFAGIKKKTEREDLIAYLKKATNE

## CC(=O)N[C@H]1[C@H](O[C@H]2[C@@H](O)[C@@H](CO)O[C@H](O[C@@H]3[C@H](O)[C@@H](O)[C@H](O[C@H]4[C@H](O)[C@@H](O)C(O)O[C@@H]4CO)O[C@@H]3CO)[C@@H]2O)O[C@H](CO)[C@H](O)[C@@H]1O (stereo partly drawn) [Gb4, GalNAc β1-3 Galα1-4Galβ1-4Glc]
GII.4 Saga P dimer; Gb4: any listed glycan concentration, HBGA B: 500 µM
  specific binding after ADH based protein clustering correction: no specific binding
GII.4 Saga P dimer; ref. protein ADH, glycan 100 µM
  Bound number of carbohydrates on Saga P dimer: 0
GII.4 Saga P dimer; ref. protein ADH, glycan 200 µM
  Bound number of carbohydrates on Saga P dimer: 0
GII.4 Saga P dimer; ref. protein ADH, glycan 300 µM
  Bound number of carbohydrates on Saga P dimer: 0
GII.4 Saga P dimer; ref. protein ADH, glycan 400 µM
  Bound number of carbohydrates on Saga P dimer: 0
GII.4 Saga P dimer; ref. protein ADH, glycan 500 µM
  Bound number of carbohydrates on Saga P dimer: 0
GII.4 Saga P dimer; ref. protein CA, glycan 100 µM
  Bound number of carbohydrates on Saga P dimer: 1
GII.4 Saga P dimer; ref. protein CA, glycan 200 µM
  Bound number of carbohydrates on Saga P dimer: 1
GII.4 Saga P dimer; ref. protein CA, glycan 300 µM
  Bound number of carbohydrates on Saga P dimer: 2
GII.4 Saga P dimer; ref. protein CA, glycan 400 µM
  Bound number of carbohydrates on Saga P dimer: 2
GII.4 Saga P dimer; ref. protein CA, glycan 500 µM
  Bound number of carbohydrates on Saga P dimer: 2
GII.4 Saga P dimer; ref. protein Cyto c, glycan 100 µM
  Bound number of carbohydrates on Saga P dimer: 1
GII.4 Saga P dimer; ref. protein Cyto c, glycan 200 µM
  Bound number of carbohydrates on Saga P dimer: 2
GII.4 Saga P dimer; ref. protein Cyto c, glycan 300 µM
  Bound number of carbohydrates on Saga P dimer: 3
GII.4 Saga P dimer; ref. protein Cyto c, glycan 400 µM
  Bound number of carbohydrates on Saga P dimer: 3
GII.4 Saga P dimer; ref. protein Cyto c, glycan 500 µM
  Bound number of carbohydrates on Saga P dimer: 4
GII.4 Saga P dimer; ref. protein GFP, glycan 100 µM
  Bound number of carbohydrates on Saga P dimer: 2
GII.4 Saga P dimer; ref. protein GFP, glycan 200 µM
  Bound number of carbohydrates on Saga P dimer: 2
GII.4 Saga P dimer; ref. protein GFP, glycan 300 µM
  Bound number of carbohydrates on Saga P dimer: 2
GII.4 Saga P dimer; ref. protein GFP, glycan 400 µM
  Bound number of carbohydrates on Saga P dimer: 2
GII.4 Saga P dimer; ref. protein GFP, glycan 500 µM
  Bound number of carbohydrates on Saga P dimer: 2
GII.4 Saga P dimer; ref. protein LDH, glycan 100 µM
  Bound number of carbohydrates on Saga P dimer: 0
GII.4 Saga P dimer; ref. protein LDH, glycan 200 µM
  Bound number of carbohydrates on Saga P dimer: 0
GII.4 Saga P dimer; ref. protein LDH, glycan 300 µM
  Bound number of carbohydrates on Saga P dimer: 0
GII.4 Saga P dimer; ref. protein LDH, glycan 400 µM
  Bound number of carbohydrates on Saga P dimer: 0
GII.4 Saga P dimer; ref. protein LDH, glycan 500 µM
  Bound number of carbohydrates on Saga P dimer: 1
GII.4 Saga P dimer; ref. protein Myo, glycan 100 µM
  Bound number of carbohydrates on Saga P dimer: 2
GII.4 Saga P dimer; ref. protein Myo, glycan 200 µM
  Bound number of carbohydrates on Saga P dimer: 3
GII.4 Saga P dimer; ref. protein Myo, glycan 300 µM
  Bound number of carbohydrates on Saga P dimer: 3
GII.4 Saga P dimer; ref. protein Myo, glycan 400 µM
  Bound number of carbohydrates on Saga P dimer: 3
GII.4 Saga P dimer; ref. protein Myo, glycan 500 µM
  Bound number of carbohydrates on Saga P dimer: 4
GII.4 Saga P dimer; ref. protein Ubq, glycan 100 µM
  Bound number of carbohydrates on Saga P dimer: 2
GII.4 Saga P dimer; ref. protein Ubq, glycan 200 µM
  Bound number of carbohydrates on Saga P dimer: 3
GII.4 Saga P dimer; ref. protein Ubq, glycan 300 µM
  Bound number of carbohydrates on Saga P dimer: 4
GII.4 Saga P dimer; ref. protein Ubq, glycan 400 µM
  Bound number of carbohydrates on Saga P dimer: 4
GII.4 Saga P dimer; ref. protein Ubq, glycan 500 µM
  Bound number of carbohydrates on Saga P dimer: 4
GII.4 Saga P dimer; ref. protein apo-TFF, glycan 100 µM
  Bound number of carbohydrates on Saga P dimer: 0
GII.4 Saga P dimer; ref. protein apo-TFF, glycan 200 µM
  Bound number of carbohydrates on Saga P dimer: 0
GII.4 Saga P dimer; ref. protein apo-TFF, glycan 300 µM
  Bound number of carbohydrates on Saga P dimer: 1
GII.4 Saga P dimer; ref. protein apo-TFF, glycan 400 µM
  Bound number of carbohydrates on Saga P dimer: 1
GII.4 Saga P dimer; ref. protein apo-TFF, glycan 500 µM
  Bound number of carbohydrates on Saga P dimer: 1
[1]; 100 µM glycan
  Glycan-Clustering Ratio R: 0.03±0.01
[1]; 200 µM glycan
  Glycan-Clustering Ratio R: 0.04±0.01
[1]; 300 µM glycan
  Glycan-Clustering Ratio R: 0.12±0.02
[1]; 400 µM glycan
  Glycan-Clustering Ratio R: 0.21±0.20
[1]; 500 µM glycan
  Glycan-Clustering Ratio R: 0.09 ± 0.03
[2]; 100 µM glycan
  Glycan-Clustering Ratio R: 0.14±0.02
[2]; 200 µM glycan
  Glycan-Clustering Ratio R: 0.17±0.03
[2]; 300 µM glycan
  Glycan-Clustering Ratio R: 0.20±0.03
[2]; 400 µM glycan
  Glycan-Clustering Ratio R: 0.30±0.01
[2]; 500 µM glycan
  Glycan-Clustering Ratio R: 0.37 ± 0.06
[3]; 100 µM glycan
  Glycan-Clustering Ratio R: 0.10±0.01
[3]; 200 µM glycan
  Glycan-Clustering Ratio R: 0.15±0.00
[3]; 300 µM glycan
  Glycan-Clustering Ratio R: 0.19±0.03
[3]; 400 µM glycan
  Glycan-Clustering Ratio R: 0.29±0.04
[3]; 500 µM glycan
  Glycan-Clustering Ratio R: 0.45 ± 0.02

From PMC8231113, “Protein Secondary Structure Affects Glycan Clustering in Native Mass Spectrometry” (Life, 2021)
